From patent US12570643B2, “3-aryloxy-3-five-membered heteroaryl propylamine compound, and crystal form and use thereof” (Shanghai Leado Pharmatech Co. Ltd., priority 2019, dated 2026)

Tests used:
[1] = system: hot plate induced pain model in rat; experiment: Hot plate induced pain model in rat; type: in vivo, Sprague-Dawley rats; settings: 100 mg/kg intraperitoneal
Protocol: Male, mature and unmated healthy Sprague-Dawley rats were selected, and the temperature of the cold/hot plate (product model: PE34, US IITC) was adjusted to a constant temperature of 53±0.1° C., and rats with painful response such as foot licking, foot shaking or slight jumping within 5-10 s were screened (abandoned those who evaded and jumped). […] The tested compound was freshly formulated on the day of administration. A 0.9% NaCl normal saline solution was prepared as a vehicle, an appropriate amount of the test compound was added to the required volume of normal saline, and the mixture was fully suspended to prepare the drug at a concentration of 1 mg/ml. […] The latency of thermal pain was measured at 0.5 h, 1 h and 2 h after drug administration. To avoid scalding the animals on the hot plate, the maximum latency was set to 30 s. The analgesic effect of each compound was evaluated using the maximum possible effect (MPE), i.e. MPE %=[(Post drug latency-baseline latency)/(30−baseline latency)]×100. Statistics of MPE % at different time points.

SNL model in rat = experiment: SNL model in rat, mechanical hyperalgesia test; type: in vivo, SD rats; settings: 100 mg/kg intragastric, 1 hour after administration; control group 3.967 ± 0.775
Protocol: SD rats were taken for surgery, male, SPF grade, mass 150 g-180 g. The surgical procedure was performed aseptically. The animals were anesthetized with sodium pentobarbital (50 mg/kg, intraperitoneal injection). The surgical area of the waist of animals was shaved, and the skin was disinfected three times with iodophor and 70% ethanol. Start the operation after the skin was dry. A longitudinal incision was made in the posterior part of the sacral bone of the animal's waist with a scalpel to expose the left paravertebral muscles, and the muscle tissue was separated with a distractor to expose the vertebra. The left spinal nerves L5 and L6 were separated, ligated with 6-0 silk thread, and the wounds were sutured. After the surgery, the animals were placed on an electric blanket and injected subcutaneously with 5 mL normal saline to prevent dehydration. When the animal was completely awake (free to move), put the animal back into the cage.
After the surgery, the animals were adapted in the experimental environment for 15 minutes/day for 3 days.
After administration, mechanical hyperalgesia test was performed. The rats were placed individually in a plexiglas box with a grid at the bottom of the box to ensure that the feet of the rats can be tested. Rats would adapt for 15 minutes before the test. […] The rapid paw withdrawal of the animal during the test was recorded as a pain response. The paw withdrawal of the animal when the test fiber left the animal's skin was also recorded as a pain response. If the animal moved or walked, it will not be recorded as a pain response, the test should be repeated. […]
Mechanical hyperalgesia was expressed as the paw withdrawal threshold (PWT) in the behavioral test of rats, which was calculated according to the following equation: 50% response threshold (g)=(10(^Xf+kδ))/10,000 • Xf=the final test fiber value used in the test • K=table value • δ=Average difference
Data were collected using Excel software and analyzed using Prism 6.01 (Graph pad software, Inc.) software.

[2] = system: acetic acid writhing pain model in mice; experiment: Acetic acid writhing pain model in mice; type: in vivo, ICR mice; settings: 10 mg/kg intragastric, acetic acid 1 hour after administration; normal saline group 49 times
Protocol: ICR mice, male, 22-25 g, were fasted for food 2 h before administration, but can have water. All ICR mice were weighed and randomly grouped with the number of animals>10 per group. […] The mice were administered via intragastric administration according to the weight of mice. 1.5% acetic acid solution (0.1 ml/10 g) was intraperitoneally injected at 1 hour after administration, and the number of times of visceral pain in each group within 30 minutes was observed, the mice were counted once when the abdomen was concave, the trunk and hind legs were extended and the hips were elevated, and the number of times of these phenomena occurred within 30 min was finally counted.

TRPA1 = molecular target: T1, TRPA1 (Mus musculus, UniProt Q8BLA8); experiment: TRPA1 inhibitory activity, IonWorks Barracuda (IWB) automatic patch clamp detection; type: cell-based; settings: HEK293 cells stably expressing TRPA1, AITC-induced current; read-out: IC50(μM) against TRPA1 in automatic patch clamp detection
T1 construct: expressed in transfected cells; host or cells: HEK293 cells stably expressing TRPA1
T1 sequence (Q8BLA8 whole entry): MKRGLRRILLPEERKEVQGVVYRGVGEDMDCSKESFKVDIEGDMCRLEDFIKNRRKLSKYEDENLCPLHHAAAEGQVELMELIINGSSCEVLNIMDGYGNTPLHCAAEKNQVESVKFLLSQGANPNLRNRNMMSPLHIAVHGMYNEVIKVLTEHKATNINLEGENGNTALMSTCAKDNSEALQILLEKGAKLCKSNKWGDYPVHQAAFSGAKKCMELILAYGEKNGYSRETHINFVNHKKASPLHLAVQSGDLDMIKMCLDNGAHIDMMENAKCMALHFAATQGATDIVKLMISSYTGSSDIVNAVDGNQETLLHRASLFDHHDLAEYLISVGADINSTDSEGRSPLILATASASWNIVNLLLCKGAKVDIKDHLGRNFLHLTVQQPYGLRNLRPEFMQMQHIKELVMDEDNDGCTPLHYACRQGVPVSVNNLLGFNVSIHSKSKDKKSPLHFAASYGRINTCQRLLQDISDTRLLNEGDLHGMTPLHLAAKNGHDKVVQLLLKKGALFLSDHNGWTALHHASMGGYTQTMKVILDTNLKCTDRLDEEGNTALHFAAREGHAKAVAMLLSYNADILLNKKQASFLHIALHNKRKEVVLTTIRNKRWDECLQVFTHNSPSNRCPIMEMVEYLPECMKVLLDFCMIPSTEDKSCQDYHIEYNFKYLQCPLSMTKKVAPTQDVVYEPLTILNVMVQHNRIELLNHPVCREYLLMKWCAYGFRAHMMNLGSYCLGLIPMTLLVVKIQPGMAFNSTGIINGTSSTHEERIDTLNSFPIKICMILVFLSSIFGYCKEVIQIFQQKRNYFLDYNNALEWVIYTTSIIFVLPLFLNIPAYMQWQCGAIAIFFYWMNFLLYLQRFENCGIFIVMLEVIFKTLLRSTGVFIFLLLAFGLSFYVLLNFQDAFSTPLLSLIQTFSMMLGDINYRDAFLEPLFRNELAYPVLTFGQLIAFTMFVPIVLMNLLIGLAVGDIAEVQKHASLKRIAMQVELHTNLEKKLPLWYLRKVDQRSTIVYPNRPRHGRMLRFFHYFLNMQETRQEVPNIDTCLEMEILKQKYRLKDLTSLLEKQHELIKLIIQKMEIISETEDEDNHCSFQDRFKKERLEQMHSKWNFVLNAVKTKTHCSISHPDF
Protocol: In this example, the compounds prepared in some examples of the present invention (shown in Table 1) were tested for their inhibitory activity on the transient receptor potential channel protein TRPA1. Wherein, compound of formula A (WO2010075353) was used as positive control: […]
Test method by using IonWorks Barracuda (IWB) automatic patch clamp detection: HEK293 cells stably expressing TRPA1 were placed in a 37° C., 5% CO2 incubator and incubated with DMEM medium containing 15 μg/mL Blasticidin S HCl, 200 μg/mL Hygromycin B and 10% FBS serum in a T175 culture flask. When the cell density grew to […], the culture medium was removed, the cells were washed with calcium and magnesium free phosphate buffered saline (PBS), and 3 mL of Trypsin was added and digested for 2 minutes, and 7 mL of culture medium was added to terminate the digestion. […]
Data recording and current amplitude measurement and export were completed by IWB Software (version 2.5.3, Molecular Devices Corporation, Union City, CA). The statistics of the well with a sealing impedance lower than 20 M Ω were not recorded. The original current data was corrected by software, the TRPA1 current amplitude was measured in +100 mV. […] The dose-effect curve and IC50 of compounds were fitted and calculated by GraphPad Prism 5.02 (GraphPad Software, San Diego, CA).

[3] = system: formalin pain model in mice; experiment: Formalin pain model in mice; type: in vivo, C57BL/6 mice; settings: Mus musculus, ip; intraperitoneal, phase II (10-60 min), dose that halves licking time vs blank control; read-out: analgesic potency ED50 in phase II pain
Excerpt: 150 C57BL/6 mice (male, 9 weeks) were randomly divided into 15 groups with 10 mice for each group, and were used for the analgesic activity test of 3 compounds in the formalin pain model in mice: the compound I-1 group (compound I-1 prepared in Example 2, its hydrochloride was used in the experiment), the S-duloxetine group (its hydrochloride was used in the experiment) and the compound C1 group (compound C1 prepared in Comparative Example 1, its hydrochloride was used in the experiment), respectively. Before the start of the experiment, the mice were allowed to adapt to the experimental environment for 72 hours, during which there was no need to fast for food or water. The tested drugs were administrated by intraperitoneal injection, and the doses were as follows: • The compound I-1 group: blank Vehicle (blank normal saline control), 0.1 mg/kg, 0.5 mg/kg, 1 mg/kg, 5 mg/kg and 10 mg/kg; • The S-duloxetine group: blank Vehicle (blank normal saline control), 1 mg/kg, 5 mg/kg, 10 mg/kg and 20 mg/kg; • The Compound C1 group: blank Vehicle (blank normal saline control), 0.1 mg/kg, 0.5 mg/kg, 1 mg/kg, 5 mg/kg and 10 mg/kg.
After the administration, the mice were placed in a transparent, ventilated plexiglass cylinder, and 1 hour later, 20 μl of 4% formalin solution was injected into the left hind foot plantar of each group of mice with a micro-injector, and foot pain response in mice were recorded in real time with a miniature camera. The length of time of licking the left foot was used as an indicator of pain response, the licking time were observed and recorded during two periods of 0-10 min (phase I) and 10-60 min (phase II) respectively, for statistical analysis, and the half effective dose (ED50) of the 3 compounds were calculated: ED50 refers to the drug dose that reduces the licking time by half compared with the blank control group. The smaller the ED50 value is, the lower the effective analgesic dose of the compound is and the better its analgesic effect is.

[4] = system: postoperative pain model in rat; experiment: Postoperative pain model in rat, mechanical hyperalgesia test; type: in vivo; settings: 10 mg/kg intramuscular injection
Protocol: Injection of compound I-1: 36.13 mg of compound I-1 prepared in Example 2 was weighed and added into 3.140 mL of normal saline, and well mixed by vortex;
The solvent of the test compound I-1 was normal saline, the administration dose was 10 mg/kg, and the administration method was intramuscular injection. 36.13 mg of the compound I-1 was weighed and added into 3.140 mL normal saline, and well mixed by vortex. The reference compound used in the experiment was bupivacaine injection, purchased from Shanghai Zhaohui Pharmaceutical Co., Ltd., in a dose of 10 mg/kg via intramuscular injection.
Aseptic operation was performed during surgery, surgical instruments (scissors, forceps, scalpel, surgical cotton, suture thread) were disinfected before the operation. The rats were anesthetized with sodium pentobarbital (50 mg/kg, intraperitoneal injection), and the toes of the rats were squeezed to confirm that the animals were completely anesthetized before the surgery. Ophthalmic ointment was applied to the animal's eyes to prevent the animal's cornea from drying out. Iodophor and 70% ethanol were used to disinfect the skin of the surgery area on the sole of the left hind foot three times, and the surgery was started after the skin was dried. Starting at 0.5 cm from the heel, a 1 cm long incision was made longitudinally toward the toe. After cutting the skin, the flexor digitorum brevis was lifted to make longitudinal blunt injury. After pressing to stop the bleeding, the wound was sutured. The surgical instruments were cleaned and sterilized with hot bead sterilizer. After the surgery, the animals were placed on an electric blanket and injected subcutaneously with 5 mL normal saline to prevent dehydration. When the animal was completely awake (free to move), put the animal back into the cage. […]
The rat was placed alone in a plexiglass box with a grid on the bottom of the box to ensure that the rat's feet can be tested. […] During the test, the animal's rapid foot shrinkage was recorded as a pain response. The animal's foot shrinkage when the test fiber left the animal's skin was also recorded as a pain response. If the animal moved or walked, it would not be recorded as the pain response, the test should be repeated. […] The mechanical hyperalgesia test results are recorded in the table of FIG. 10, in which pain response is indicated with an “x” and no pain response is indicated with an “o.”
Mechanical hyperalgesia was expressed as the paw withdrawal threshold (PWT) in the behavioral test of rats, which was calculated according to the following equation: 50% response threshold (g)=(10(Xf+k))/10,000 • Xf=the final test fiber value used in the test • K=table value (Chaplan et al. 1994, page 62) • □=Average difference 5. […]

Compound `NCC1(CC(=O)O)CCCCC1` [Gabapentin, gabapentin] has an MPE % ([1]; 0.5 h) of 6.47 ± 5.49%, an MPE % ([1]; 1 h) of 14.56 ± 6.18% and an MPE % ([1]; 2 h) of 22.66 ± 4.93%. For the same compound, the “PWT” value (SNL model in rat) was 6.352 ± 1.897 g.

`CN1[C@H]2C[C@H](OC(=O)[C@H](CO)c3ccccc3)C[C@@H]1[C@@H](O)C2` [anisodamine, Anisodamine] was tested, and the “number of visceral pains (writhing reactions) within 30 min” value [2] was 27 times.

`CNCC[C@@H](Oc1cccc2ccccc12)c1cccs1` [R-Duloxetine, R-duloxetine] showed an IC50 (TRPA1) of 21 to 50 µM.

With `CNCC[C@H](Oc1cccc2ccoc12)c1cccs1` [Compound C1, (S)-3-(benzofuran-7-yloxy)-N-methyl-3-(thiophen-2-yl)propan-1-amine] the ED50 [3] was 2.22 mg/kg.

In the case of `CCCCN1CCCCC1C(=O)Nc1c(C)cccc1C` (stereo not drawn) [Bupivacaine, bupivacaine], the “PWT” value ([4]; 1 hour after administration, Normal Saline 3.561) was 11.587 g and the “PWT” value ([4]; 2 hours after administration, Normal Saline 3.382) was 4.448 g.
